Experimental data from US10597388B2, “Pyridazinone herbicides” (FMC CORPORATION, priority 2014, dated 2020).

How the values were obtained:
Test in all cases: Test D controlled growth environment herbicide test, pre- and postemergence
Format in all cases: in vivo
[1] = tested on: lambsquarters (Chenopodium album)
In short: (§1)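 Pre-emergence: seeds sown in silt loam soil were sprayed with compound in a non-phytotoxic solvent mix containing surfactant. Post-emergence: plants at 2 to 18 cm (1- to 4-leaf stage) in peat moss/vermiculite medium got the same formulation. Visual 0–100 rating versus controls after 14 to 21 d.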

[2] = tested on: foxtail, green (green foxtail, Setaria viridis)
In short: as §1

[3] = tested on: ryegrass, Italian (Italian ryegrass, Lolium multiflorum)
In short: as §1

[4] = tested on: pigweed (Amaranthus retroflexus)
In short: as §1

[5] = tested on: bluegrass (annual bluegrass, Poa annua)
In short: as §1

[6] = tested on: barley, winter (winter barley, Hordeum vulgare)
In short: as §1

[7] = tested on: bromegrass, downy (downy bromegrass, Bromus tectorum)
In short: as §1

[8] = tested on: galium (catchweed bedstraw, Galium aparine)
In short: as §1

[9] = tested on: blackgrass (Alopecurus myosuroides)
In short: as §1

[10] = tested on: wheat, spring (spring wheat, Triticum aestivum)
In short: as §1

[11] = tested on: canarygrass (Phalaris minor)
In short: as §1

[12] = tested on: windgrass (Apera spica-venti)
In short: as §1

[13] = tested on: buckwheat, wild (wild buckwheat, Polygonum convolvulus)
In short: as §1

[14] = Postemergence, 31 g ai/ha, scale 0 to 100 (0 no effect, 100 complete control)
[15] = Postemergence, 125 g ai/ha, visual rating on scale 0 (no effect) to 100 (complete control), 14 to 21 d
[16] = Postemergence, 250 g ai/ha, scale 0 to 100 (0 no effect, 100 complete control)
[17] = Preemergence, 62 g ai/ha, scale 0 to 100 (0 no effect, 100 complete control)
[18] = Preemergence, 125 g ai/ha, scale 0 to 100 (0 no effect, 100 complete control)
[19] = Preemergence, 250 g ai/ha, scale 0 to 100, 0 no effect, 100 complete control
[20] = postemergence, 62 g ai/ha, scale 0 to 100, 0 no effect, 100 complete control

Q: What does the source list for `Cc1nn(C)c(=O)c(-c2c(C)sc3ccc(Br)cc23)c1O` [Compound 22]?
A: Lambsquarters plant response rating [1, 14]: 80; Plant response rating, Lambsquarters [1, 15]: 95; Plant response rating, Lambsquarters [1, 16]: 98; Plant response rating (scale of 0 to 100), Lambsquarters ([1]; Preemergence, 31 g ai/ha): 100; Plant response rating, Lambsquarters [1, 17]: 100; Plant response rating, Lambsquarters [1, 18]: 100; Plant response rating, Lambsquarters [1, 19]: 100; Plant response rating, Lambsquarters [1, 20]: 85; Foxtail, Green plant response rating [2, 14]: 15; Plant response rating, Foxtail, Green [2, 15]: 70; Plant response rating, Foxtail, Green [2, 16]: 75; Plant response rating (scale of 0 to 100), Foxtail, Green ([2]; Preemergence, 31 g ai/ha): 0; Plant response rating, Foxtail, Green [2, 17]: 0; Plant response rating, Foxtail, Green [2, 18]: 0; Plant response rating, Foxtail, Green [2, 19]: 20; Plant response rating, Foxtail, Green [2, 20]: 45; Ryegrass, Italian plant response rating [3, 14]: 75; Plant response rating, Ryegrass, Italian [3, 15]: 85; Plant response rating, Ryegrass, Italian [3, 16]: 90; Plant response rating (scale of 0 to 100), Ryegrass, Italian ([3]; Preemergence, 31 g ai/ha): 85; Plant response rating, Ryegrass, Italian [3, 17]: 90; Plant response rating, Ryegrass, Italian [3, 18]: 100; Plant response rating, Ryegrass, Italian [3, 19]: 100; Plant response rating, Ryegrass, Italian [3, 20]: 80; Pigweed plant response rating [4, 14]: 85; Plant response rating, Pigweed [4, 15]: 98; Plant response rating, Pigweed [4, 16]: 100; Plant response rating (scale of 0 to 100), Pigweed ([4]; Preemergence, 31 g ai/ha): 100; Plant response rating, Pigweed [4, 17]: 98; Plant response rating, Pigweed [4, 18]: 98; Plant response rating, Pigweed [4, 19]: 100; Plant response rating, Pigweed [4, 20]: 95; Bluegrass plant response rating [5, 14]: 10; Plant response rating, Bluegrass [5, 15]: 25; Plant response rating, Bluegrass [5, 16]: 25; Plant response rating (scale of 0 to 100), Bluegrass ([5]; Preemergence, 31 g ai/ha): 0; Plant response rating, Bluegrass [5, 17]: 30; Plant response rating, Bluegrass [5, 18]: 30; Bluegrass plant response rating [5, 19]: 40; Plant response rating, Bluegrass [5, 20]: 15; Plant response rating, Barley, Winter [6, 14]: 0; Plant response rating, Barley, Winter [6, 15]: 0; Plant response rating, Barley, Winter [6, 16]: 5; Plant response rating (scale of 0 to 100), Barley, Winter ([6]; Preemergence, 31 g ai/ha): 0; Plant response rating, Barley, Winter [6, 17]: 0; Plant response rating, Barley, Winter [6, 18]: 0; Barley, Winter plant response rating [6, 19]: 0; Plant response rating, Barley, Winter [6, 20]: 0; Bromegrass, Downy plant response rating [7, 14]: 10; Plant response rating, Bromegrass, Downy [7, 15]: 25; Plant response rating, Bromegrass, Downy [7, 16]: 25; Plant response rating (scale of 0 to 100), Bromegrass, Downy ([7]; Preemergence, 31 g ai/ha): 0; Plant response rating, Bromegrass, Downy [7, 17]: 5; Plant response rating, Bromegrass, Downy [7, 18]: 25; Plant response rating, Bromegrass, Downy [7, 19]: 80; Plant response rating, Bromegrass, Downy [7, 20]: 10; Galium plant response rating [8, 14]: 90; Plant response rating, Galium [8, 15]: 98; Plant response rating, Galium [8, 16]: 98; Plant response rating (scale of 0 to 100), Galium ([8]; Preemergence, 31 g ai/ha): 10; Plant response rating, Galium [8, 17]: 65; Plant response rating, Galium [8, 18]: 75; Plant response rating, Galium [8, 19]: 85; Plant response rating, Galium [8, 20]: 90; Blackgrass plant response rating [9, 14]: 15; Plant response rating, Blackgrass [9, 15]: 45; Plant response rating, Blackgrass [9, 16]: 70; Plant response rating (scale of 0 to 100), Blackgrass ([9]; Preemergence, 31 g ai/ha): 45; Plant response rating, Blackgrass [9, 17]: 45; Plant response rating, Blackgrass [9, 18]: 55; Blackgrass plant response rating [9, 19]: 75; Plant response rating, Blackgrass [9, 20]: 20; Wheat, Spring plant response rating [10, 14]: 5; Plant response rating, Wheat, Spring [10, 15]: 10; Plant response rating, Wheat, Spring [10, 16]: 15; Plant response rating (scale of 0 to 100), Wheat, Spring ([10]; Preemergence, 31 g ai/ha): 0; Plant response rating, Wheat, Spring [10, 17]: 0; Plant response rating, Wheat, Spring [10, 18]: 10; Plant response rating, Wheat, Spring [10, 19]: 25; Plant response rating, Wheat, Spring [10, 20]: 10; Canarygrass plant response rating [11, 14]: 20; Plant response rating, Canarygrass [11, 15]: 40; Plant response rating, Canarygrass [11, 16]: 65; Plant response rating (scale of 0 to 100), Canarygrass ([11]; Preemergence, 31 g ai/ha): 25; Plant response rating, Canarygrass [11, 17]: 35; Plant response rating, Canarygrass [11, 18]: 85; Plant response rating, Canarygrass [11, 19]: 90; Plant response rating, Canarygrass [11, 20]: 35; Windgrass plant response rating [12, 14]: 15; Plant response rating, Windgrass [12, 15]: 35; Plant response rating, Windgrass [12, 16]: 55; Plant response rating (scale of 0 to 100), Windgrass ([12]; Preemergence, 31 g ai/ha): 0; Plant response rating, Windgrass [12, 17]: 20; Plant response rating, Windgrass [12, 18]: 70; Plant response rating, Windgrass [12, 19]: 80; Plant response rating, Windgrass [12, 20]: 20; Buckwheat, Wild plant response rating [13, 14]: 90; Plant response rating, Buckwheat, Wild [13, 15]: 100; Plant response rating, Buckwheat, Wild [13, 16]: 100; Plant response rating (scale of 0 to 100), Buckwheat, Wild ([13]; Preemergence, 31 g ai/ha): 20; Plant response rating, Buckwheat, Wild [13, 17]: 20; Plant response rating, Buckwheat, Wild [13, 18]: 85; Plant response rating, Buckwheat, Wild [13, 19]: 95; Plant response rating, Buckwheat, Wild [13, 20]: 98

Q: Which “Plant response rating, Lambsquarters” value [1, 15] does the source give for `Cc1ccc2ccccc2c1-c1c(O)c(Br)nn(C)c1=O` [Compound 23] here?
A: Its value is 75.

Q: What about the “Plant response rating, Lambsquarters” value [1, 16] of the same compound?
A: The value was 80.

Q: And the “Plant response rating, Lambsquarters” value [1, 20]?
A: Its value is 75.

Q: What about the “Plant response rating, Foxtail, Green” value [2, 15] of the same compound?
A: The value was 80.

Q: What about the “Plant response rating, Foxtail, Green” value [2, 16] of the same compound?
A: The value was 90.

Q: And the “Plant response rating, Foxtail, Green” value [2, 20]?
A: The value was 75.

Q: What about the “Plant response rating, Ryegrass, Italian” value [3, 15] of the same compound?
A: The value was 85.

Q: What about the “Plant response rating, Ryegrass, Italian” value [3, 16] of the same compound?
A: The value was 85.

Q: And the “Plant response rating, Ryegrass, Italian” value [3, 20]?
A: Its value is 80.

Q: And the “Plant response rating, Pigweed” value [4, 15]?
A: The value was 85.

Q: And the “Plant response rating, Pigweed” value [4, 16]?
A: Its value is 100.

Q: What about the “Plant response rating, Pigweed” value [4, 20] of the same compound?
A: The value was 75.

Q: And the “Plant response rating, Bluegrass” value [5, 15]?
A: Its value is 35.

Q: And the “Plant response rating, Bluegrass” value [5, 16]?
A: Its value is 40.

Q: And the “Plant response rating, Bluegrass” value [5, 20]?
A: The value was 35.

Q: And the “Plant response rating, Barley, Winter” value [6, 15]?
A: Its value is 25.

Q: What about the “Plant response rating, Barley, Winter” value [6, 16] of the same compound?
A: The value was 30.

Q: What about the “Plant response rating, Barley, Winter” value [6, 20] of the same compound?
A: Its value is 15.

Q: And the “Plant response rating, Bromegrass, Downy” value [7, 15]?
A: Its value is 60.

Q: What about the “Plant response rating, Bromegrass, Downy” value [7, 16] of the same compound?
A: The value was 75.

Q: What about the “Plant response rating, Bromegrass, Downy” value [7, 20] of the same compound?
A: Its value is 45.

Q: What about the “Plant response rating, Galium” value [8, 15] of the same compound?
A: The value was 100.

Q: And the “Plant response rating, Galium” value [8, 16]?
A: The value was 100.

Q: What about the “Plant response rating, Galium” value [8, 20] of the same compound?
A: The value was 100.

Q: And the “Plant response rating, Blackgrass” value [9, 15]?
A: Its value is 75.

Q: What about the “Plant response rating, Blackgrass” value [9, 16] of the same compound?
A: The value was 80.

Q: What about the “Plant response rating, Blackgrass” value [9, 20] of the same compound?
A: Its value is 70.

Q: And the “Plant response rating, Wheat, Spring” value [10, 15]?
A: Its value is 60.

Q: What about the “Plant response rating, Wheat, Spring” value [10, 16] of the same compound?
A: Its value is 60.

Q: What about the “Plant response rating, Wheat, Spring” value [10, 20] of the same compound?
A: Its value is 50.

Q: And the “Plant response rating, Canarygrass” value [11, 15]?
A: The value was 85.

Q: What about the “Plant response rating, Canarygrass” value [11, 16] of the same compound?
A: Its value is 90.

Q: And the “Plant response rating, Canarygrass” value [11, 20]?
A: The value was 75.

Q: What about the “Plant response rating, Windgrass” value [12, 15] of the same compound?
A: The value was 75.

Q: And the “Plant response rating, Windgrass” value [12, 16]?
A: The value was 85.

Q: And the “Plant response rating, Windgrass” value [12, 20]?
A: Its value is 70.

Q: What about the “Plant response rating, Buckwheat, Wild” value [13, 15] of the same compound?
A: The value was 100.

Q: What about the “Plant response rating, Buckwheat, Wild” value [13, 16] of the same compound?
A: Its value is 100.

Q: And the “Plant response rating, Buckwheat, Wild” value [13, 20]?
A: Its value is 100.
